The source of these data is PubChem BioAssay (NCI).

Values joined by “and” are separate entries in the source; they are usually repeats but may differ in a detail not shown here. Identical values can stand only once.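 Exposure lasted 48 hours, with cells grown in 96-well plates and compounds tested at five concentrations. GI50 is the concentration that inhibits growth by half. The concentration for full growth arrest is given as TGI.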 *1 amine or outer side, *2 acyl side, *3 side chain or, on linkers, in order; H or OH if unused. Where a SMILES comes first, the peptide text is derived from it. Bridges are numbered along the chain shown (N, C = ends). [ ]: non-standard residue; d: D form. The star is where a group is joined. Phe(3-Me) = Cc1cccc(C[C@H](N)C(=O)O)c1; NH(4-Cl-2-F-phenyl) = Fc1cc(Cl)ccc1N*; Pro(4R-Me) = C[C@H]1CN[C@H](C(=O)O)C1; Propanoyl(3-NMe2) = CN(C)CCC(=O)*; Hyp = O=C(O)[C@@H]1C[C@@H](O)CN1; aThr = C[C@H](O)[C@H](N)C(=O)O; Pip = O=C(O)[C@@H]1CCCCN1; CO = O=C([*:1])[*:2] Bounds are passed on as bounds.

Among the test systems are ACHN renal; DU-145 prostate; HCC-2998 colon; HCT-116 colon; NCI-H23 lung; OVCAR-4 ovarian; SF-539 CNS; SK-MEL-2 melanoma; SNB-75 CNS; T-47D breast.
Holding throughout (experiment): NCI tumour cell line growth inhibition, 48 h

With `S=C(N/N=C(/c1ccccc1)c1ccccn1)Nc1cccc(Cl)c1`, the TGI was 4.6 µM and 5.42 µM with ACHN renal; 9.43 µM in the assay on DU-145 prostate; 5.04 µM and 5.92 µM with HCC-2998 colon; 1.91 µM and 1.76 µM in the assay with HCT-116 colon; 5.58 µM and 16.8 µM in the assay with NCI-H23 lung; 3.67 µM and 15.9 µM in the assay on OVCAR-4 ovarian. Further, the TGI in the assay with SF-539 CNS was 2.97 µM and 5.99 µM; with SK-MEL-2 melanoma, 2.87 µM; with SNB-75 CNS, 2.92 µM and 4.88 µM. Moreover, the GI50 in the assay with DU-145 prostate is 2.97 µM; with HCC-2998 colon, 2 µM; in the assay on HCT-116 colon, 0.00475 µM; in the assay with NCI-H23 lung, 1.35 µM; in the assay on OVCAR-4 ovarian, 1.1 µM; with SF-539 CNS, 1.12 µM. The GI50 was 0.0753 µM in the assay on SK-MEL-2 melanoma, 0.608 µM in the assay on SNB-75 CNS and 0.56 µM in the assay with T-47D breast.

As for `O=C1c2cccnc2C(=O)c2c1c(C(=O)OCCN1CCOCC1)c1ccccn21`, the GI50 is less than 0.01 µM in the assay with ACHN renal; less than 0.0175 µM in the assay with DU-145 prostate; 0.252 µM in the assay with HCC-2998 colon; 0.0417 µM with HCT-116 colon; less than 0.01 µM with NCI-H23 lung; 1.07 µM in the assay on OVCAR-4 ovarian. In addition, the GI50 in the assay on SF-539 CNS was less than 0.01 µM; in the assay with SK-MEL-2 melanoma, 0.0585 µM; in the assay with SNB-75 CNS, less than 0.01 µM; with T-47D breast it was 0.228 µM. Also, the TGI with ACHN renal is 11.5 µM; in the assay on DU-145 prostate, 1.31 µM; with HCC-2998 colon it was 5.4 µM; in the assay on HCT-116 colon it was 1.49 µM; in the assay with OVCAR-4 ovarian it was 5.29 µM; in the assay on SF-539 CNS, less than 0.0212 µM. The results for the TGI in the assay with SK-MEL-2 melanoma, with SNB-75 CNS and in the assay with T-47D breast were 1.61 µM, 0.572 µM and 5.25 µM, respectively.

Take `Nc1c(C(=O)Nc2ccccc2)sc2nc3c(cc12)CCCC3`: the GI50 was 1.61 µM in the assay on ACHN renal; 1.67 µM in the assay with DU-145 prostate; 1.99 µM with HCC-2998 colon; 0.49 µM in the assay on HCT-116 colon; 1.08 µM in the assay with NCI-H23 lung; 5.18 µM in the assay with OVCAR-4 ovarian. Further, the GI50 in the assay with SF-539 CNS was 0.452 µM; with SK-MEL-2 melanoma, 3.24 µM; with SNB-75 CNS, 0.551 µM; with T-47D breast it was 0.918 µM. The TGI with ACHN renal was greater than 100 µM; with DU-145 prostate, greater than 58.9 µM; in the assay with HCC-2998 colon, greater than 37.2 µM; in the assay on HCT-116 colon, greater than 100 µM; in the assay with NCI-H23 lung, greater than 100 µM; with OVCAR-4 ovarian it was greater than 100 µM. For the same compound, the TGI was 3.9 µM with SF-539 CNS, greater than 67.3 µM in the assay with SK-MEL-2 melanoma, 40.8 µM in the assay on SNB-75 CNS and greater than 63.2 µM in the assay with T-47D breast.

Turning to `Cc1cccc(C[C@H](NC(=O)Nc2ccc(Cl)cc2F)C(=O)N[C@@H]2C(=O)N3C[C@H](OC(=O)CCN(C)C)C[C@H]3C(=O)N3CCCC[C@H]3C(=O)N[C@@H](C)C(=O)N3C[C@H](C)C[C@H]3C(=O)O[C@H]2C)c1` ({NH(4-Cl-2-F-phenyl)-CO}-[Phe(3-Me)][aThr][Hyp](Propanoyl(3-NMe2))[Pip]A[Pro(4R-Me)]; ester 2-C), the GI50 is 1.75 µM with ACHN renal; 0.514 µM with DU-145 prostate; 0.476 µM with HCC-2998 colon; 0.408 µM in the assay on HCT-116 colon; 0.519 µM in the assay with NCI-H23 lung; 0.334 µM with OVCAR-4 ovarian. The GI50 was 0.704 µM with SF-539 CNS, 0.667 µM in the assay on SK-MEL-2 melanoma, 1.26 µM in the assay on SNB-75 CNS and 0.448 µM in the assay on T-47D breast. The TGI came out at 3.49 µM with ACHN renal; 5.86 µM with DU-145 prostate; 1.77 µM in the assay with HCC-2998 colon; 1.62 µM with HCT-116 colon; 3.17 µM in the assay with NCI-H23 lung; 2.06 µM in the assay with OVCAR-4 ovarian. Further, the TGI in the assay on SF-539 CNS was 2.17 µM; in the assay on SK-MEL-2 melanoma, 2.67 µM; with SNB-75 CNS it was 9.44 µM; with T-47D breast it was 4.53 µM.

On to `COc1cc(NC(N)=NCCC(C)(C)c2ccc(C(F)(F)F)cc2)ncc1C#N`, for which the GI50 was 1.65 µM in the assay on ACHN renal; 1.93 µM in the assay on DU-145 prostate; 1.89 µM in the assay on HCC-2998 colon; 1.51 µM in the assay on HCT-116 colon; 1.53 µM in the assay with NCI-H23 lung; 1.82 µM in the assay on OVCAR-4 ovarian. Further, the GI50 in the assay with SF-539 CNS was 1.87 µM; in the assay with SK-MEL-2 melanoma it was 1.84 µM; in the assay on SNB-75 CNS, 1.66 µM; in the assay on T-47D breast it was 1.51 µM. Further, the TGI in the assay with ACHN renal was 3.01 µM; in the assay with DU-145 prostate, 3.51 µM; in the assay on HCC-2998 colon, 3.34 µM; with HCT-116 colon, 2.9 µM; with NCI-H23 lung it was 3.15 µM; in the assay on OVCAR-4 ovarian it was 4.12 µM. Besides, the TGI with SF-539 CNS is 3.33 µM; with SK-MEL-2 melanoma, 3.38 µM; in the assay with SNB-75 CNS, 3.26 µM; in the assay with T-47D breast it was 3.5 µM.

As to `COc1ccc(CNc2nc(NCc3ccc(OC)cc3)c3n[nH]c(C(C)C)c3n2)cc1`, the GI50 with ACHN renal was 7.6 µM; with DU-145 prostate, 11.4 µM; with HCC-2998 colon, 2.43 µM; in the assay with HCT-116 colon, 4.06 µM; in the assay with NCI-H23 lung, 4.09 µM; in the assay on OVCAR-4 ovarian, 1.76 µM. Besides, the GI50 with SF-539 CNS was 5.98 µM; in the assay on SK-MEL-2 melanoma, 1.98 µM; with SNB-75 CNS, 0.406 µM; in the assay with T-47D breast, 3.38 µM. Moreover, the TGI in the assay with ACHN renal came out at 20.7 µM; in the assay on DU-145 prostate, 36.5 µM; in the assay with HCC-2998 colon it was 5.99 µM; in the assay on HCT-116 colon, 22.6 µM; in the assay with NCI-H23 lung, 18.3 µM; with OVCAR-4 ovarian, 17.5 µM. Moreover, the TGI in the assay on SF-539 CNS amounted to 23.5 µM; with SK-MEL-2 melanoma, 4.93 µM; with SNB-75 CNS it was 5.32 µM; with T-47D breast, 42.6 µM.

On to `C=C(CN1CCN(c2cccc(F)c2)CC1)c1ccc(C(=O)Nc2ccccc2N)cc1`, for which the GI50 in the assay on ACHN renal was 4.59 µM; with DU-145 prostate, 1.8 µM; with HCC-2998 colon, 2.98 µM; with HCT-116 colon, 1.08 µM; in the assay with NCI-H23 lung it was 1.77 µM; with OVCAR-4 ovarian, 3.35 µM. Moreover, the GI50 was 1.45 µM in the assay with SF-539 CNS, 4.89 µM with SK-MEL-2 melanoma, 0.492 µM in the assay on SNB-75 CNS and 4.38 µM in the assay with T-47D breast. In addition, the TGI was 90.7 µM in the assay with ACHN renal; 7.16 µM in the assay with DU-145 prostate; 11 µM in the assay on HCC-2998 colon; 12.5 µM in the assay on HCT-116 colon; 17.3 µM in the assay with NCI-H23 lung; 33.9 µM with OVCAR-4 ovarian. Moreover, the TGI with SF-539 CNS was 5.77 µM; with SK-MEL-2 melanoma, greater than 100 µM; in the assay with SNB-75 CNS, 6.24 µM; in the assay on T-47D breast it was greater than 100 µM.

Take `CC(=O)OCC1OC(n2c(-c3ccccc3)c(C)c(C)c(C#N)c2=S)C(OC(C)=O)C(OC(C)=O)C1OC(C)=O` (centres undefined): the GI50 in the assay with ACHN renal is 26.8 µM and > 100 µM; with DU-145 prostate, 36.9 µM and > 100 µM; in the assay on HCT-116 colon, 11.4 µM and 40.1 µM; in the assay on NCI-H23 lung, 32.9 µM and 16.3 µM; in the assay on OVCAR-4 ovarian it was 14.8 µM and 76.1 µM; in the assay on SF-539 CNS, 14.4 µM and > 100 µM. Moreover, the GI50 in the assay on SK-MEL-2 melanoma is 35.5 µM and 14.6 µM. Also, the TGI in the assay with ACHN renal was greater than 100 µM; with DU-145 prostate, greater than 100 µM; with HCC-2998 colon, greater than 100 µM; with HCT-116 colon, 21.6 µM and > 100 µM; in the assay with NCI-H23 lung, > 50 µM and 54.7 µM; with OVCAR-4 ovarian, 34.1 µM and > 100 µM. Further, the TGI in the assay on SF-539 CNS is 36.8 µM and > 100 µM; in the assay on SK-MEL-2 melanoma it was > 50 µM and 41.3 µM; with SNB-75 CNS, greater than 100 µM; with T-47D breast it was greater than 100 µM.

As for `CC[C@@]1(O)C(=O)OCc2c1cc1n(c2=O)Cc2c-1nc1ccccc1c2/C=N/OC(C)(C)C`, the GI50 with ACHN renal was less than 0.01 µM; with DU-145 prostate, less than 0.01 µM; in the assay with HCC-2998 colon, 0.183 µM; with HCT-116 colon it was less than 0.01 µM; in the assay with NCI-H23 lung, less than 0.01 µM; in the assay with OVCAR-4 ovarian, 0.311 µM. In addition, the GI50 in the assay on SF-539 CNS was less than 0.01 µM; in the assay on SK-MEL-2 melanoma, 0.0447 µM; in the assay on SNB-75 CNS, less than 0.0109 µM; in the assay on T-47D breast, less than 0.01 µM. Besides, the TGI worked out at 0.127 µM in the assay on ACHN renal; 13.5 µM with DU-145 prostate; 14.1 µM in the assay with HCC-2998 colon; 13.4 µM with HCT-116 colon; 0.158 µM in the assay on NCI-H23 lung; 13.9 µM in the assay on OVCAR-4 ovarian. Besides, the TGI with SF-539 CNS was less than 0.0216 µM; with SK-MEL-2 melanoma, 1.22 µM; in the assay on SNB-75 CNS, 0.978 µM; with T-47D breast it was 15.1 µM.

`Cc1ccc(S(=O)(=O)n2cc(-c3nnnn3-c3ccc(Cl)cc3)c(=O)c3ccccc32)cc1`: the GI50 in the assay on ACHN renal was greater than 100 µM; with DU-145 prostate, greater than 100 µM; with HCC-2998 colon, greater than 100 µM; in the assay on HCT-116 colon, 45.9 µM; in the assay on NCI-H23 lung it was greater than 100 µM; with OVCAR-4 ovarian, 53.7 µM. Also, the GI50 with SF-539 CNS is greater than 100 µM; in the assay on SK-MEL-2 melanoma, greater than 100 µM; in the assay with SNB-75 CNS, 39.6 µM; in the assay with T-47D breast, 57.9 µM. The TGI in the assay on ACHN renal, in the assay on DU-145 prostate, with HCC-2998 colon, with HCT-116 colon, in the assay on NCI-H23 lung and in the assay on OVCAR-4 ovarian was greater than 100 µM in each case. The TGI with SF-539 CNS, in the assay with SK-MEL-2 melanoma, with SNB-75 CNS and with T-47D breast was greater than 100 µM throughout.
